Here are results for 15 compounds from US12662451B2, “Chemical compounds and uses thereof” (GLAXOSMITHKLINE INTELLECTUAL PROPERTY (NO.4) LIMITED, priority 2023, dated 2026).

Where two headings read alike, the source gives them in different places.

Data set [1] deals with SW48 human colorectal cancer cells (MSI-H cancer cells). Kind of data set: SW48 cell viability, CellTiter-Glo, 120 hours (Example B). Conditions: for CC50: Homo sapiens.
Data set [2] deals with SW48 human colorectal cancer cells. Kind of data set: Calculated free drug potency in SW48 cell assay, corrected with media free fraction (Example C). Type of data set: cell-based. Conditions: Homo sapiens, SW48, SW48 pCC50 corrected with measured free fraction in cell assay media. An outline of the steps: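 Compound spiked at nominal 1 μM into cell assay medium and dialysed against PBS (100 mM sodium phosphate, 150 mM NaCl, pH 7.4) by rapid equilibrium dialysis, 4 h, 37 °C, shaking. Percent unbound from LC-MS/MS peak area ratios (240 min vs 0 min); cell assay concentrations corrected by this free fraction.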

The target in data set [3] is T1, recombinant full-length WRN protein (1-1432) (Homo sapiens, UniProt Q14191).
T1 construct: recombinant full-length WRN protein (1-1432)
Kind of data set: WRN unwinding activity, fluorogenic 384-well assay (Example A). Format: biochemical. Conditions: WRN unwinding activity, 4 hr; Table 2; read-out: 4 hr UNW pIC50 (converted). The gist of the method:
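200 pM enzyme (2× stock) preincubated with compound 4 h at ambient temperature, then 200 μM ATP and 12 nM quenched TAMRA-labelled dsDNA (2× stocks) added for 60 min; EDTA-quenched. Buffer 25 mM Tris pH 8.0, 5 mM NaCl, 2 mM MgCl2. Fluorescence at 525/598 nm; pIC50 from four-parameter fit.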

Data set [4] can be described thus: Cell culture media unbound percentage and stability by rapid equilibrium dialysis (Example C). Format: in vitro ADME. Conditions: bovine, cell assay medium (RPMI-1640 with 10% fetal bovine serum), pH 7.4, rapid equilibrium dialysis, 4 hours at 37° C., read-out: Cell Culture Media Binding (% unbound). An outline of the steps: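 Compound spiked into cell culture medium at nominal 1 μM and dialysed against PBS (100 mM sodium phosphate + 150 mM NaCl, pH 7.4) by rapid equilibrium dialysis, triplicate, 4 h at 37° C with shaking. LC-MS/MS peak area ratios gave percent unbound (receiver/donor) and percent stability (240 min vs 0 min).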
In general terms: In equilibrium dialysis only unbound substance equilibrates across the membrane.

Setting [5] is: SW48, read-out: SW48 pCC50, measured potency from Example B, as repeated in Table 3 (converted).
[6] abbreviates: SW48, 120 h, read-out: SW48 pCC50, SW48 cell viability, 120 hours incubation (converted), Table 2.

T1 sequence (Q14191 whole entry): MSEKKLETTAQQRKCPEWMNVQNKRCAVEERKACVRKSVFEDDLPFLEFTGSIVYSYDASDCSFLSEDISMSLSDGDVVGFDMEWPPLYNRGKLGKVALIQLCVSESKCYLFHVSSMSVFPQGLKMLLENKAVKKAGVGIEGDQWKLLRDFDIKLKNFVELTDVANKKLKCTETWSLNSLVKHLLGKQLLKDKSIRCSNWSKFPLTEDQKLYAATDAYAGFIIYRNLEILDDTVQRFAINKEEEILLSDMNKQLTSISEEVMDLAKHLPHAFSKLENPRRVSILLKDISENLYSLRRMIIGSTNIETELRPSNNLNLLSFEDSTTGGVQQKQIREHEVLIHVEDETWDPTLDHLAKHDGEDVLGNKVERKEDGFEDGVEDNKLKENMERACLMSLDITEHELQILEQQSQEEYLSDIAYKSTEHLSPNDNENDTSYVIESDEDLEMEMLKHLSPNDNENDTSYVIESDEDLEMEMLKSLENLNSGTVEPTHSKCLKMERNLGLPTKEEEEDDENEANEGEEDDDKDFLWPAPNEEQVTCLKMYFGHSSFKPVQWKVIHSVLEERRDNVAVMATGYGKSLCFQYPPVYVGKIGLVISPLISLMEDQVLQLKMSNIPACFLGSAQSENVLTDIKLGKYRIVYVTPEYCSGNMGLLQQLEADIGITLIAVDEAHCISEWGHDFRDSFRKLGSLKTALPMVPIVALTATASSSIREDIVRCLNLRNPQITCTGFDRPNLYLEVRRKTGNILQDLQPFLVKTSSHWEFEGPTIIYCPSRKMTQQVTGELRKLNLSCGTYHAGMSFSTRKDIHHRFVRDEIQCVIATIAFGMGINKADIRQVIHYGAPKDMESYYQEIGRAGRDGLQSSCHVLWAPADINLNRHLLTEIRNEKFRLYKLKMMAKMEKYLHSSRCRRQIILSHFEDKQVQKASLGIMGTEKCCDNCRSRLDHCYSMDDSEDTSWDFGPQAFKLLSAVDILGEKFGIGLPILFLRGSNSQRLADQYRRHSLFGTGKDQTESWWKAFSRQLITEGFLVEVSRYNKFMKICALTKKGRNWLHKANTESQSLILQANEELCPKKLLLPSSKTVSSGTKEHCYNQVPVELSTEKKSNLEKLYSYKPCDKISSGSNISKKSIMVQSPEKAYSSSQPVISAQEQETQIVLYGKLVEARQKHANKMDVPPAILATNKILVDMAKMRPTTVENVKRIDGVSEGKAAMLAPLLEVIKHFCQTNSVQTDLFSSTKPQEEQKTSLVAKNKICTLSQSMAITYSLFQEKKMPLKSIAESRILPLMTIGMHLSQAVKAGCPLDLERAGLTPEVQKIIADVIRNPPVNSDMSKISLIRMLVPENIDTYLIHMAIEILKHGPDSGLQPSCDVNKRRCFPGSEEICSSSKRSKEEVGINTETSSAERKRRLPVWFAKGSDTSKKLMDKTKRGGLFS

`CN(c1ccc([C@H]2CCC[C@@H](C(=O)Nc3ccc(C(F)(F)F)cc3F)[C@@H]2C(=O)O)cc1)S(=O)(=O)c1cc(I)c2occc2c1` [Example 94, (1R,2R,6S)-2-((2-fluoro-4-(trifluoromethyl)phenyl)carbamoyl)-6-(4-((7-iodo-N-methylbenzofuran)-5-sulfonamido)phenyl)cyclohexane-1-carboxylic acid]: the CC50 was 3980 nM in data set [1] (setting [5]) and 5.62 nM in data set [2]. Moreover, in data set [1] (SW48 cell viability, 120 hours incubation, Table 2), the “SW48 pCC50” value is recorded as 5.4. Also, the IC50 in data set [3] was 50.1 nM. The fraction unbound at 4 h, 1 µM in data set [4] was found to be 0.0014.
Regarding `CN(C)Cc1cccc(S(=O)(=O)N(C)c2ccc([C@H]3CCC[C@@H](C(=O)Nc4ccc(C(F)(F)F)cc4F)[C@@H]3C(=O)O)cc2)c1` [Example 97], the CC50 is 1000 nM in data set [1] (setting [6]), 1000 nM in data set [1] (setting [5]) and 240 nM in data set [2]. In addition, in data set [3], the IC50 is 2 nM. In addition, the fraction unbound at 4 h, 1 µM in data set [4] turned out to be 0.241.
Consider `CN(c1ccc([C@H]2CCC[C@@H](C(=O)Nc3ccc(C(F)(F)F)cc3F)[C@@H]2C(=O)O)cc1)S(=O)(=O)c1ccc2scnc2c1` [Example 101, (1R,2R,6S)-2-((2-fluoro-4-(trifluoromethyl)phenyl)carbamoyl)-6-(4-(N-methylbenzo[d]thiazole-5-sulfonamido)phenyl)cyclohexane-1-carboxylic acid], for which the CC50 in data set [1] (setting [6]) is 1260 nM; in data set [1] (setting [5]) it was 1260 nM; in data set [2] it was 43.7 nM. The IC50 in data set [3] was 5.01 nM. The fraction unbound at 4 h, 1 µM in data set [4] stood at 0.0349.
For `CN(c1ccc([C@H]2CCC[C@@H](C(=O)Nc3ccc(C(F)(F)F)cc3F)[C@@H]2C(=O)O)cc1)S(=O)(=O)c1ccc2c(ccn2C)c1` [Example 107, (1R,2S,6R)-2-(4-((N, 1-dimethyl-1H-indole)-5-sulfonamido)phenyl)-6-((2-fluoro-4-(trifluoromethyl)phenyl)carbamoyl)cyclohexane-1-carboxylic acid], the CC50 in data set [1] (setting [6]) is 794 nM; in data set [1] (setting [5]), 794 nM; in data set [2], 19.5 nM. In addition, in data set [3], the IC50 is 5.01 nM. Also, in data set [4], the fraction unbound at 4 h, 1 µM was 0.0245.
For the compound `CN(c1ccc([C@H]2CCC[C@@H](C(=O)Nc3ccc(C(F)(F)F)cc3F)[C@@H]2C(=O)O)cc1)S(=O)(=O)c1ccccc1` [Example 109, (1R,2R,6S)-2-((2-fluoro-4-(trifluoromethyl)phenyl)carbamoyl)-6-(4-(N-methylphenylsulfonamido)phenyl)cyclohexane-1-carboxylic acid], the results for the CC50 in data set [1] (setting [6]), in data set [1] (setting [5]) and in data set [2] were 1260 nM, 1260 nM and 105 nM, respectively. The IC50 in data set [3] is 1 nM. The fraction unbound at 4 h, 1 µM in data set [4] is 0.0829.
On to `CN(c1ccc([C@H]2CCC[C@@H](C(=O)Nc3ccc(C(F)(F)F)cc3F)[C@@H]2C(=O)O)cc1)S(=O)(=O)c1ccc2ccn(C)c2c1` [Example 110, (1R,2S,6R)-2-(4-((N,1-dimethyl-1H-indole)-6-sulfonamido)phenyl)-6-((2-fluoro-4-(trifluoromethyl)phenyl)carbamoyl)cyclohexane-1-carboxylic acid], for which the CC50 in data set [1] (setting [6]) was 1260 nM; in data set [1] (setting [5]) it was 1260 nM; in data set [2] it was 10.7 nM. Besides, the IC50 in data set [3] was 3.98 nM. Besides, the fraction unbound at 4 h, 1 µM in data set [4] came to 0.0085.
Take `CN(c1ccc([C@H]2CCC[C@@H](C(=O)Nc3ccc(C(F)(F)F)cc3F)[C@@H]2C(=O)O)cc1)S(=O)(=O)c1ccc2c(c1)OCC2` [Example 112, (1R,2R,6S)-2-((2-fluoro-4-(trifluoromethyl)phenyl)carbamoyl)-6-(4-((N-methyl-2,3-dihydrobenzofuran)-6-sulfonamido)phenyl)cyclohexane-1-carboxylic acid]: the CC50 is 794 nM in data set [1] (setting [6]), 794 nM in data set [1] (setting [5]) and 32.4 nM in data set [2]. Besides, the IC50 in data set [3] was 2.51 nM. Also, the fraction unbound at 4 h, 1 µM in data set [4] was 0.0405.
`CN(c1ccc([C@H]2CCC[C@@H](C(=O)Nc3ccc(C(F)(F)F)cc3F)[C@@H]2C(=O)O)cc1)S(=O)(=O)c1cccc(C2CNC(=O)C2)c1` (stereo partly drawn) [Example 113, (1R,2R,6S)-2-((2-fluoro-4-(trifluoromethyl)phenyl)carbamoyl)-6-(4-((N-methyl-3-(5-oxopyrrolidin-3-yl)phenyl)sulfonamido)phenyl)cyclohexane-1-carboxylic acid]: the values for the CC50 in data set [1] (setting [6]), in data set [1] (setting [5]) and in data set [2] were 631 nM, 631 nM and 56.2 nM, respectively. The IC50 in data set [3] was 1.58 nM. For the same compound, the fraction unbound at 4 h, 1 µM in data set [4] came out at 0.0899.
Take `CN1CCC[C@@H](c2cccc(S(=O)(=O)N(C)c3ccc([C@H]4CCC[C@@H](C(=O)Nc5ccc(C(F)(F)F)cc5F)[C@@H]4C(=O)O)cc3)c2)C1` [Example 116, (1R,2R,6S)-2-((2-fluoro-4-(trifluoromethyl)phenyl)carbamoyl)-6-(4-((N-methyl-3-((S)-1-methylpiperidin-3-yl)phenyl)sulfonamido)phenyl)cyclohexane-1-carboxylic acid]: the figures for the CC50 in data set [1] (setting [6]), in data set [1] (setting [5]) and in data set [2] were 501 nM, 501 nM and 145 nM, respectively. Further, the IC50 in data set [3] was 1.58 nM. Further, in data set [4], the fraction unbound at 4 h, 1 µM is 0.286.
As for `CN(c1ccc([C@H]2CCC[C@@H](C(=O)Nc3ccc(C(F)(F)F)cc3F)[C@@H]2C(=O)O)cc1)S(=O)(=O)c1cccc(C(=O)N2CCOCC2)c1` [Example 119, (1R,2R,6S)-2-((2-fluoro-4-(trifluoromethyl)phenyl)carbamoyl)-6-(4-((N-methyl-3-(morpholine-4-carbonyl)phenyl)sulfonamido)phenyl)cyclohexane-1-carboxylic acid], the CC50 in data set [1] (setting [6]) is 1000 nM; in data set [1] (setting [5]), 1000 nM; in data set [2], 229 nM. Also, the IC50 in data set [3] is 1.58 nM. The fraction unbound at 4 h, 1 µM in data set [4] amounted to 0.231.
For `CN(c1ccc([C@H]2CCC[C@@H](C(=O)Nc3ccc(C(F)(F)F)cc3F)[C@@H]2C(=O)O)cc1)S(=O)(=O)c1cccc(C2CC2(F)F)c1` (stereo partly drawn) [Example 120, (1R,2S,6R)-2-(4-((3-(2,2-difluorocyclopropyl)-N-methylphenyl)sulfonamido)phenyl)-6-((2-fluoro-4-(trifluoromethyl)phenyl)carbamoyl)cyclohexane-1-carboxylic acid], the CC50 is 3160 nM in data set [1] (setting [6]), 3160 nM in data set [1] (setting [5]) and 33.9 nM in data set [2]. Also, in data set [3], the IC50 was 10 nM. Besides, the fraction unbound at 4 h, 1 µM in data set [4] was 0.0107.
In the case of `CN(C)c1nc2cc(S(=O)(=O)N(C)c3ccc([C@H]4CCC[C@@H](C(=O)Nc5ccc(C(F)(F)F)cc5F)[C@@H]4C(=O)O)cc3)ccc2n1C` [Example 121, (1R,2S,6R)-2-(4-((2-(dimethylamino)-N, 1-dimethyl-1H-benzo[d]imidazole)-5-sulfonamido)phenyl)-6-((2-fluoro-4-(trifluoromethyl)phenyl)carbamoyl)cyclohexane-1-carboxylic acid], the CC50 was 316 nM in data set [1] (setting [6]), 316 nM in data set [1] (setting [5]) and 6.17 nM in data set [2]. Further, the IC50 in data set [3] was 3.16 nM. In data set [4], the fraction unbound at 4 h, 1 µM stood at 0.0195.
Regarding `CN1CCOc2ccc(S(=O)(=O)N(C)c3ccc([C@H]4CCC[C@@H](C(=O)Nc5ccc(C(F)(F)F)cc5F)[C@@H]4C(=O)O)cc3)cc21` [Example 122, (1R,2S,6R)-2-(4-((N,4-dimethyl-3,4-dihydro-2H-benzo[b][1,4]oxazine)-6-sulfonamido)phenyl)-6-((2-fluoro-4-cyclohe(trifluoromethyl)phenyl)carbamoyl)xane-1-carboxylic acid], the CC50 in data set [1] (setting [6]) was 1000 nM; in data set [1] (setting [5]), 1000 nM; in data set [2], 5.62 nM. Besides, the IC50 in data set [3] was 7.94 nM. The fraction unbound at 4 h, 1 µM in data set [4] came to 0.0056.
Regarding `CN1CCN(C)c2cc(S(=O)(=O)N(C)c3ccc([C@H]4CCC[C@@H](C(=O)Nc5ccc(C(F)(F)F)cc5F)[C@@H]4C(=O)O)cc3)ccc21` [Example 123, (1R,2R,6S)-2-((2-fluoro-4-(trifluoromethyl)phenyl)carbamoyl)-6-(4-((N,1,4-trimethyl-1,2,3,4-tetrahydroquinoxaline)-6-sulfonamido)phenyl)cyclohexane-1-carboxylic acid], the figures for the CC50 in data set [1] (setting [6]), in data set [1] (setting [5]) and in data set [2] were 501 nM, 501 nM and 3.55 nM, respectively. For the same compound, the IC50 in data set [3] was 3.98 nM. Moreover, the fraction unbound at 4 h, 1 µM in data set [4] was determined as 0.0071.
Take `Cc1nc2cc(S(=O)(=O)N(C)c3ccc([C@H]4CCC[C@@H](C(=O)Nc5ccc(C(F)(F)F)cc5F)[C@@H]4C(=O)O)cc3)cnc2n1C` [Example 124, (1R,2R,6S)-2-((2-fluoro-4-(trifluoromethyl)phenyl)carbamoyl)-6-(4-((N,2,3-trimethyl-3H-imidazo[4,5-b]pyridine)-6-sulfonamido)phenyl)cyclohexane-1-carboxylic acid]: the CC50 was 501 nM in data set [1] (setting [6]), 501 nM in data set [1] (setting [5]) and 49 nM in data set [2]. Moreover, the IC50 in data set [3] is 3.98 nM. In data set [4], the fraction unbound at 4 h, 1 µM was found to be 0.097.
